Reference: article PMC11396514, “Synthesis and Biological Evaluation of Novel Piperidine-3-Carboxamide Derivatives as Anti-Osteoporosis Agents Targeting Cathepsin K” (Molecules, 2024)

How the values were obtained:
Recombinant human Cat K = target: T1, Recombinant human Cat K (Homo sapiens, UniProt P43235); assay: In vitro enzymatic assay of Cat K inhibition (Z-Phe-Arg-AMC fluorescence); type: biochemical; details: pH 6.0, substrate Z-Phe-Arg-AMC, read-out: Cat K IC50 (µM) ± SD
T1 sequence (P43235 115-329): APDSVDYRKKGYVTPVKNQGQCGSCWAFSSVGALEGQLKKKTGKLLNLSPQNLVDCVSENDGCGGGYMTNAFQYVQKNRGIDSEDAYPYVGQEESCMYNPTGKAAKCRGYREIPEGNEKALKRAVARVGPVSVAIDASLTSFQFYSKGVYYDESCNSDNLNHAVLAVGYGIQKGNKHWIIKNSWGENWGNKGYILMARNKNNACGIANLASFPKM
Description: Compounds were tested at eight concentrations (100–0.001 µM). Recombinant human Cat K (5.5 ng/mL) in reaction buffer (50 µL) containing sodium acetate (50 mM), EDTA (2.5 mM), and DTT (1 mM) was added to a 96-well plate containing the test compounds at pH 6.0. The plate was incubated at 37 °C for 15 min, and the fluorescence (F1) was measured at 355 nm excitation and 460 nm emission using a microplate reader (Wallac 1420 Victor2, Norwalk, CA, USA). Subsequently, Z-Phe-Arg-AMC (20 µL, 10 µM) was added, and the plate was incubated at 37 °C for 1 h. Fluorescence (F2) was measured again at 355 nm excitation and 460 nm emission. The inhibition rate was calculated using the formula: inhibition (%) = [control (F2 − F1) − sample (F2–F1)]/[control (F2 − F1) − blank (F2 − F1)] × 100%. IC50 values were calculated using the SPSS 17.0 software.

[1] = test system: RANKL-induced RAW264.7 cells; assay: In vitro anti-bone resorption assay: CTX-I released into culture medium (ELISA), cells on bovine femur slices; type: cell-based; details: compound 1 µM, 5 days; for CTX-I concentration compared to the model group (in words): vs untreated model group
Text: (§1) Type I collagen, the predominant structural protein in bone, constitutes approximately 90% of the bone matrix protein [22]. During bone renewal, type I collagen is degraded, releasing short peptide fragments such as the C-terminal peptide of type I collagen (CTX-I) into the bloodstream. The concentration of CTX-I in the patient’s blood serves as a crucial biomarker for evaluating the degree of osteoporosis. In vitro, bone resorption can be assessed by measuring the concentration of CTX-I using a model in which osteoclasts are cultured on bone slices. In this experiment, the in vitro anti-bone resorption activities of the test compounds were evaluated in RANKL-induced RAW264.7 cells. This evaluation was based on the concentration of CTX-I released into the cell culture medium due to bone degradation, as well as the area of bone resorption pits formed on bone slices.
(§2) RAW264.7 cells, obtained from the cell bank of the Chinese Academy of Medical Sciences, were seeded into 96-well plates at a density of 1 × 10^5 cells per well with bovine femur slices. To induce cell differentiation, 50 ng mL^−1 of RANKL was added to the RAW264.7 cells. The cells were cultured for 5 days at 37 °C under 5% CO2 with the test compounds at a concentration of 1 µM. The culture supernatant was collected to measure the CTX-I concentration using ELISA. The bone slices were fixed with 2.5% glutaraldehyde for 7 min, then washed 3 times with 0.25 mol/L ammonium hydroxide, dehydrated using a series of ethanol solutions (40%, 75%, 80%, 95%, and anhydrous ethanol), and dried naturally. After staining with 1% toluidine blue solution at room temperature for 3–4 min, the bone slices were rinsed with distilled water and analyzed using an optical microscope. Bone resorption areas were calculated using image analysis software (iBright CL1500, Redmond, WA, USA).

[2] = test system: RANKL-induced RAW264.7 cells; assay: In vitro anti-bone resorption assay: area of bone resorption pits on bone slices (toluidine blue); type: cell-based; details: compound 1 µM, 5 days, compared with MIV-711 / model group
Text: as §1, §2

| SMILES | melting point [°C] | IC50 (Recombinant human Cat K) [µM] | CTX-I concentration compared to the model group (in words) [1] | Anti-bone resorption activity by area of bone resorption pits (in words) [2] | CTX-I concentration in the cell culture medium ([1]; ELISA) [nM] |
| --- | --- | --- | --- | --- | --- |
| COc1ccc(CNC(=O)[C@@H]2CCCN(S(=O)(=O)c3ccccc3Br)C2)cc1 [Compound H-13, (R)-1-((2-bromophenyl)sulfonyl)-N-(4-methoxybenzyl)piperidine-3-carboxamide] | 189.5 to 190.5 | 0.74 ± 0.12 | reduced CTX-I concentration |  |  |
| COc1ccc(S(=O)(=O)N2CCC[C@@H](C(=O)NCc3cccc(Cl)c3)C2)cc1 [Compound H-8, (R)-N-(3-chlorobenzyl)-1-((4-methoxyphenyl)sulfonyl)piperidine-3-carboxamide] | 146.1 to 148.7 | 0.45 ± 0.11 | reduced CTX-I concentration |  |  |
| COc1ccc(S(=O)(=O)N2CCC[C@@H](C(=O)NCc3ccc(C)cc3)C2)cc1 [Compound H-3, (R)-1-((4-methoxyphenyl)sulfonyl)-N-(4-methylbenzyl)piperidine-3-carboxamide] | 182.3 to 182.7 | 4.39 ± 0.65 |  |  |  |
| COc1ccc(CNC(=O)[C@@H]2CCCN(S(=O)(=O)c3ccc(OC)cc3)C2)cc1 [Compound H-6, (R)-N-(4-methoxybenzyl)-1-((4-methoxyphenyl)sulfonyl)piperidine-3-carboxamide] | 139.4 to 140.9 | 3.64 ± 0.39 |  |  |  |
| COc1ccc(CNC(=O)[C@@H]2CCCN(S(=O)(=O)c3ccc(Cl)cc3)C2)cc1 [Compound H-18, (R)-1-((4-chlorophenyl)sulfonyl)-N-(4-methoxybenzyl)piperidine-3-carboxamide] | 147 to 148.7 | 0.78 ± 0.3 |  |  |  |
| COc1ccc(S(=O)(=O)N2CCC[C@@H](C(=O)NCc3ccccc3Br)C2)cc1 [Compound H-10, (R)-N-(2-bromobenzyl)-1-((4-methoxyphenyl)sulfonyl)piperidine-3-carboxamide] | 153.7 to 154.5 | 2.18 ± 0.39 |  |  |  |
| C#C[C@@H]1CN(C(=O)[C@H](CC(C)C)NC(=O)c2ccc(-c3nc(N4CCN(C)CC4)sc3F)cc2)[C@@H]2C(=O)CO[C@H]12 [MIV-711, reference compound] |  | 0.09 ± 0.02 |  |  | 21.73 ± 3.18 |
| COc1ccc(S(=O)(=O)N2CCC[C@@H](C(=O)NCc3ccccc3OC)C2)cc1 [Compound H-4, (R)-N-(2-methoxybenzyl)-1-((4-methoxyphenyl)sulfonyl)piperidine-3-carboxamide] | 143.7 to 144.2 | 2.48 ± 0.37 |  |  |  |
| COc1ccc(CNC(=O)[C@@H]2CCCN(S(=O)(=O)c3cccc(Cl)c3)C2)cc1 [Compound H-17, (R)-1-((3-chlorophenyl)sulfonyl)-N-(4-methoxybenzyl)piperidine-3-carboxamide] | 117.1 to 119.9 | 0.47 ± 0.12 | reduced CTX-I concentration | comparable to that of MIV-711 |  |
| COc1ccc(CNC(=O)[C@@H]2CCCN(S(=O)(=O)c3cccc(Br)c3)C2)cc1 [Compound H-14, (R)-1-((3-bromophenyl)sulfonyl)-N-(4-methoxybenzyl)piperidine-3-carboxamide] | 203.5 to 204.2 | 0.91 ± 0.15 |  |  |  |
| COc1ccc(S(=O)(=O)N2CCC[C@@H](C(=O)NCc3ccccc3C)C2)cc1 [Compound H-1, (R)-1-((4-methoxyphenyl)sulfonyl)-N-(2-methylbenzyl)piperidine-3-carboxamide] | 170.4 to 171.4 | 3.52 ± 0.44 |  |  |  |
| COc1ccc(CNC(=O)[C@@H]2CCCN(S(=O)(=O)c3ccccc3C)C2)cc1 [Compound H-19, (R)-N-(4-methoxybenzyl)-1-(o-tolylsulfonyl)piperidine-3-carboxamide] | 108.3 to 109.4 | 5.33 ± 0.94 |  |  |  |
| COc1ccc(CNC(=O)[C@@H]2CCCN(S(=O)(=O)c3cccc(C)c3)C2)cc1 [Compound H-20, (R)-N-(4-methoxybenzyl)-1-(m-tolylsulfonyl)piperidine-3-carboxamide] | 152.6 to 154.2 | 3.82 ± 0.91 |  |  |  |
| COc1ccc(S(=O)(=O)N2CCC[C@@H](C(=O)NCc3ccccc3Cl)C2)cc1 [Compound H-7, (R)-N-(2-chlorobenzyl)-1-((4-methoxyphenyl)sulfonyl)piperidine-3-carboxamide] | 192.3 to 193.6 | 1.06 ± 0.18 |  |  |  |

Further compounds by falling IC50 (Recombinant human Cat K), results first:

| melting point [°C] | IC50 (Recombinant human Cat K) [µM] | SMILES | CTX-I concentration compared to the model group (in words) [1] | Anti-bone resorption activity by area of bone resorption pits (in words) [2] | CTX-I concentration in the cell culture medium ([1]; ELISA) [nM] |
| --- | --- | --- | --- | --- | --- |
|  | 13.5 ± 2.16 | COc1ccc(S(=O)(=O)N2CCC[C@@H](C(C)=O)C2)cc1 [Compound F-12] |  |  |  |
| 189.8 to 190.1 | 4.76 ± 0.71 | COc1ccc(S(=O)(=O)N2CCC[C@@H](C(=O)NCc3cccc(C)c3)C2)cc1 [Compound H-2, (R)-1-((4-methoxyphenyl)sulfonyl)-N-(3-methylbenzyl)piperidine-3-carboxamide] |  |  |  |
| 162.9 to 163.7 | 3.65 ± 0.86 | COc1ccc(CNC(=O)[C@@H]2CCCN(S(=O)(=O)c3ccc(C)cc3)C2)cc1 [Compound H-21, (R)-N-(4-methoxybenzyl)-1-tosylpiperidine-3-carboxamide] |  |  |  |
| 130.2 to 131.2 | 2.93 ± 0.4 | COc1ccc(S(=O)(=O)N2CCC[C@@H](C(=O)NCc3cccc(OC)c3)C2)cc1 [Compound H-5, (R)-N-(3-methoxybenzyl)-1-((4-methoxyphenyl)sulfonyl)piperidine-3-carboxamide] |  |  |  |
| 162.3 to 164.5 | 2.03 ± 0.43 | COc1ccc(CNC(=O)[C@@H]2CCCN(S(=O)(=O)c3ccccc3Cl)C2)cc1 [Compound H-16, (R)-1-((2-chlorophenyl)sulfonyl)-N-(4-methoxybenzyl)piperidine-3-carboxamide] | reduced CTX-I concentration |  |  |
| 152.4 to 154.4 | 0.85 ± 0.19 | COc1ccc(CNC(=O)[C@@H]2CCCN(S(=O)(=O)c3ccc(Br)cc3)C2)cc1 [Compound H-15, (R)-1-((4-bromophenyl)sulfonyl)-N-(4-methoxybenzyl)piperidine-3-carboxamide] |  |  |  |
| 124.7 to 126.5 | 0.66 ± 0.2 | COc1ccc(S(=O)(=O)N2CCC[C@@H](C(=O)NCc3cccc(Br)c3)C2)cc1 [Compound H-11, (R)-N-(3-bromobenzyl)-1-((4-methoxyphenyl)sulfonyl)piperidine-3-carboxamide] | reduced CTX-I concentration |  |  |
| 148.1 to 149.3 | 0.22 ± 0.05 | COc1ccc(S(=O)(=O)N2CCC[C@@H](C(=O)NCc3ccc(Br)cc3)C2)cc1 [Compound H-12, (R)-N-(4-bromobenzyl)-1-((4-methoxyphenyl)sulfonyl)piperidine-3-carboxamide] | reduced CTX-I concentration | comparable to that of MIV-711 |  |
